This note sets out measurements from patent US3976695A, “Halogen substituted α-(aminoalkyl)-3,4-dihydroxybenzyl alcohols” (SmithKline Corporation, priority 1970, dated 1976).

In assay [1] the test system is guinea pig tracheal chain preparations. Briefly: relaxation of spontaneous tone of guinea pig tracheal chain (ring) preparation, β-stimulant effect on airway smooth muscle. Conditions: for absolute separation ratio: atrial ED25 versus tracheal ED50, in vitro guinea pig preparations. The source says:
(§1) Two in vitro test systems used for determining selective β-stimulant activity are: (1) effect on spontaneous tone of guinea pig tracheal chain preparations as a measure of β-stimulant (direct relaxant) effect on airway smooth muscle, and (2) effect on rate of spontaneously beating right atria of the guinea pig as a measure if β-stimulant effect on cardiac muscle.

In assay [2] the test system is right atria of the guinea pig. Briefly: rate of spontaneously beating guinea pig right atria, β-stimulant effect on cardiac muscle. The conditions noted are these: Cavia porcellus, in vitro, read-out: ED25, increasing the rate of contraction of guinea pig right atria.
Excerpt: as §1

≈ marks a conversion by molar mass, not a printed value.

As for `CC(C)NCC(O)c1ccc(O)c(O)c1Cl` (stereo not drawn) [2-chloro-3,4-dihydroxy-α-(isopropylaminomethyl)-benzyl alcohol], the EC50 in assay [1] (Cavia porcellus, in vitro, guinea pig tracheal ring preparation, read-out: ED50, relaxes the spontaneous tone of guinea pig tracheal ring preparation) was determined as 0.23 ng/mL (≈ 0.936 nM). Also, the absolute separation ratio in assay [1] was 7. Besides, in assay [1] (versus d, 1-isoproterenol in similar in vitro preparations), the “improvement of absolute separation ratio compared to d, 1-isoproterenol” value is 14 fold. Moreover, the EC25 in assay [2] was determined as 1.6 ng/mL (≈ 6.51 nM).

In the case of `CC(C)NCC(O)c1ccc(O)c(O)c1` (centres unmarked) [d, 1-isoproterenol, reference compound], the absolute separation ratio in assay [1] was 0.5.
